# In PubChem BioAssay (NCI):
#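 A five-concentration, 48-hour dose response in 96-well plates underlies each endpoint, interpolated linearly between surrounding concentrations. GI50: concentration for 50% inhibition of growth. TGI: total growth inhibition.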
# Columns and labels:
# Experiment in all cases: inhibition of tumour cell growth, NCI panel, 48 h
# [1] = test system: 786-0 renal
# [2] = test system: A498 renal
# [3] = test system: A549 NSCLC
# [4] = test system: ACHN renal
# [5] = test system: CAKI-1 renal
# [6] = test system: CCRF-CEM leukemia
# [7] = test system: COLO 205 colon
# [8] = test system: DLD-1 colon
# [9] = test system: DMS 114 small cell lung
# [10] = test system: DMS 273 small cell lung
# [11] = test system: EKVX NSCLC
# [12] = test system: HCC-2998 colon
# [13] = test system: HCT-116 colon
# [14] = test system: HCT-15 colon
# [15] = test system: HL-60(TB) leukemia
# [16] = test system: HOP-62 NSCLC
# [17] = test system: HT29 colon
# [18] = test system: IGROV1 ovarian
# [19] = test system: K-562 leukemia
# [20] = test system: KM12 colon
# [21] = test system: KM20L2 colon
# [22] = test system: LOX IMVI melanoma
# [23] = test system: LXFL 529 NSCLC
# [24] = test system: M14 melanoma
# [25] = test system: M19-MEL melanoma
# [26] = test system: MALME-3M melanoma
# [27] = test system: MOLT-4 leukemia
# [28] = test system: NCI-H23 lung
# [29] = test system: NCI-H460 lung
# [30] = test system: NCI-H522 lung
# [31] = test system: OVCAR-3 ovarian
# [32] = test system: OVCAR-4 ovarian
# [33] = test system: OVCAR-8 ovarian
# [34] = test system: RPMI-8226 leukemia
# [35] = test system: RXF 393 renal
# [36] = test system: SF-268 CNS
# [37] = test system: SF-295 CNS
# [38] = test system: SK-MEL-2 melanoma
# [39] = test system: SK-MEL-28 melanoma
# [40] = test system: SK-MEL-5 melanoma
# [41] = test system: SK-OV-3 ovarian
# [42] = test system: SN12C renal
# [43] = test system: SNB-19 CNS
# [44] = test system: SR leukemia
# [45] = test system: SW-620 colon
# [46] = test system: TK-10 renal
# [47] = test system: U251 CNS
# [48] = test system: UACC-257 melanoma
# [49] = test system: UACC-62 melanoma
# [50] = test system: UO-31 renal
# [51] = test system: XF 498 CNS
# [52] = test system: NCI-H226 lung
# [53] = test system: OVCAR-5 ovarian
# [54] = test system: SF-539 CNS
# [55] = test system: SNB-75 CNS
# [56] = test system: SNB-78 CNS
compound,measurement,setting,value
CC(C)=[CH][Sb]([Br])([CH]=C(C)C)([CH]=C(C)C)[c]1ccccc1,GI50,[1],43.7 µM
same,TGI,[1],> 100 µM
same,GI50,[2],73 µM
same,TGI,[2],> 100 µM
same,GI50,[3],16.6 µM
same,TGI,[3],> 100 µM
same,GI50,[4],36.9 µM
same,TGI,[4],> 100 µM
same,GI50,[5],> 100 µM
same,TGI,[5],> 100 µM
same,GI50,[6],12.8 µM
same,TGI,[6],46.6 µM
same,GI50,[7],4.52 µM
same,TGI,[7],19.2 µM
same,GI50,[8],34 µM
same,TGI,[8],> 100 µM
same,GI50,[9],13.1 µM
same,TGI,[9],46.3 µM
same,GI50,[10],3.91 µM
same,TGI,[10],31 µM
same,GI50,[11],3.95 µM
same,TGI,[11],> 100 µM
same,GI50,[12],27.2 µM
same,TGI,[12],> 100 µM
same,GI50,[13],13 µM
same,TGI,[13],47.2 µM
same,GI50,[14],> 100 µM
same,TGI,[14],> 100 µM
same,GI50,[15],3.71 µM
same,TGI,[15],15.6 µM
same,GI50,[16],43.9 µM
same,TGI,[16],> 100 µM
same,GI50,[17],20.6 µM
same,TGI,[17],> 100 µM
same,GI50,[18],16.9 µM
same,TGI,[18],> 100 µM
same,GI50,[19],11 µM
same,TGI,[19],23 µM
same,GI50,[20],6.74 µM
same,TGI,[20],> 100 µM
same,GI50,[21],15.9 µM
same,TGI,[21],> 100 µM
same,GI50,[22],35.4 µM
same,TGI,[22],> 100 µM
same,GI50,[23],20.3 µM
same,TGI,[23],> 100 µM
same,GI50,[24],20.6 µM
same,TGI,[24],82.4 µM
same,GI50,[25],6.14 µM
same,TGI,[25],> 100 µM
same,GI50,[26],6.07 µM
same,TGI,[26],> 100 µM
same,GI50,[27],23.9 µM
same,TGI,[27],> 100 µM
same,GI50,[28],14.4 µM
same,TGI,[28],45.1 µM
same,GI50,[29],21.6 µM
same,TGI,[29],> 100 µM
same,GI50,[30],3.32 µM
same,TGI,[30],13.9 µM
same,GI50,[31],4.32 µM
same,TGI,[31],67.3 µM
same,GI50,[32],49.3 µM
same,TGI,[32],> 100 µM
same,GI50,[33],29.6 µM
same,TGI,[33],> 100 µM
same,GI50,[34],2.12 µM
same,TGI,[34],15.7 µM
same,GI50,[35],11.4 µM
same,TGI,[35],57.5 µM
same,GI50,[36],14.5 µM
same,TGI,[36],58.2 µM
same,GI50,[37],20.2 µM
same,TGI,[37],90.1 µM
same,GI50,[38],26 µM
same,TGI,[38],86.7 µM
same,GI50,[39],17.3 µM
same,TGI,[39],> 100 µM
same,GI50,[40],4.27 µM
same,TGI,[40],21.1 µM
same,GI50,[41],23 µM
same,TGI,[41],74.6 µM
same,GI50,[42],25.4 µM
same,TGI,[42],> 100 µM
same,GI50,[43],8.95 µM
same,TGI,[43],79 µM
same,GI50,[44],18.7 µM
same,TGI,[44],> 100 µM
same,GI50,[45],32.6 µM
same,TGI,[45],> 100 µM
same,GI50,[46],34.9 µM
same,TGI,[46],> 100 µM
same,GI50,[47],16.3 µM
same,TGI,[47],74.2 µM
same,GI50,[48],6.35 µM
same,TGI,[48],> 100 µM
same,GI50,[49],16 µM
same,TGI,[49],97.2 µM
same,GI50,[50],23.2 µM
same,TGI,[50],> 100 µM
same,GI50,[51],24.3 µM
same,TGI,[51],> 100 µM
CCOC(=O)C1CCCCN1C(=O)OCc1ccccc1 (stereo unspecified),TGI,[1],> 100 µM
same,TGI,[2],> 100 µM
same,TGI,[3],> 100 µM
same,TGI,[4],> 100 µM
same,TGI,[5],> 100 µM
same,TGI,[6],> 100 µM
same,TGI,[8],> 100 µM
same,TGI,[9],> 100 µM
same,TGI,[10],> 100 µM
same,TGI,[11],> 100 µM
same,TGI,[13],> 100 µM
same,TGI,[14],> 100 µM
same,TGI,[15],> 100 µM
same,TGI,[16],> 100 µM
same,TGI,[17],> 100 µM
same,TGI,[19],> 100 µM
same,TGI,[20],> 100 µM
same,TGI,[23],> 100 µM
same,TGI,[24],> 100 µM
same,TGI,[25],> 100 µM
same,TGI,[27],> 100 µM
same,TGI,[52],> 100 µM
same,TGI,[28],> 100 µM
same,TGI,[29],> 100 µM
same,TGI,[30],> 100 µM
same,TGI,[31],> 100 µM
same,TGI,[32],> 100 µM
same,TGI,[53],> 100 µM
same,TGI,[33],> 100 µM
same,TGI,[35],> 100 µM
same,TGI,[36],> 100 µM
same,TGI,[37],> 100 µM
same,TGI,[54],> 100 µM
same,TGI,[38],> 100 µM
same,TGI,[39],> 100 µM
same,TGI,[40],> 100 µM
same,TGI,[41],> 100 µM
same,TGI,[42],> 100 µM
same,TGI,[43],> 100 µM
same,TGI,[55],> 100 µM
same,TGI,[56],> 100 µM
same,TGI,[44],> 100 µM
same,TGI,[45],> 100 µM
same,TGI,[46],> 100 µM
same,TGI,[47],> 100 µM
same,TGI,[48],> 100 µM
same,TGI,[49],> 100 µM
same,TGI,[50],> 100 µM
same,TGI,[51],> 100 µM
